Values quoted from earlier work in patent publication US10561603B2, “Core-shell structure and topical agent” (SEKISUI CHEMICAL CO., LTD., priority 2015, dated 2020).
Counter-ions that a name gives are not always drawn.

Conditions: given with manufacturer and molecular weight of the drug raw material

SMILES: C[C@@H](O)[C@@H]1NC(=O)[C@H](CCCCN)NC(=O)[C@@H](Cc2c[nH]c3ccccc23)NC(=O)[C@H](Cc2ccccc2)NC(=O)[C@@H](NC(=O)[C@H](N)Cc2ccccc2)CSSC[C@@H](C(=O)N[C@H](CO)[C@@H](C)O)NC1=O [octreotide acetate]
- water-octanol partition coefficient: 0.1

SMILES: CCCc1nc(C)c2c(=O)[nH]c(-c3cc(S(=O)(=O)N4CCN(CC)CC4)ccc3OCC)nn12 [vardenafil hydrochloride trihydrate]
- water-octanol partition coefficient: 3.2
